Literature values as cited in patent US9302007B2, “Low surfactant iodine topical disinfectant” (DELAVAL HOLDING AB, priority 2011, dated 2016).

Settings: room temperature

II
solubility of iodine in water: about 300 ppm
